Experimental data reported in US20210008206A1, “ADENOSINE PATHWAY INHIBITORS FOR CANCER TREATMENT” (Corvus Pharmaceuticals, Inc., priority 2017, published 2021).

Columns and labels:
[1] = tested on: patients with advanced cancers; assay: Phase 1/1b clinical trial, tumor response by baseline biomarker level; format: in vivo, human; conditions: for Objective response rate / Disease control rate: 100 mg orally twice a day, 28 days
Protocol: FIG. 3 is a graph showing tumor response to treatment with the compound of Formula (III) in patients expressing low levels of adenosine A2A receptors and patients expressing high levels of adenosine A2A receptors. RNA was extracted from pre-treatment tumor samples, and Nanostring was performed to arrive at the values described herein. The disease control rate was 0 of 11 patients who expressed low levels of adenosine A2A receptors, and was 9 of 26 patients who expressed high levels of adenosine A2A receptors. The objective response rate was 0 of II patients who expressed low levels of adenosine A2A receptors, and 1 of 26 patients who expressed high levels of adenosine A2A receptors.
FIG. 4 is a graph showing tumor response to treatment with the compound of Formula (III) in patients expressing low levels of CD73 and patients expressing high levels of CD73. RNA was extracted from pre-treatment tumor samples, and Nanostring was performed to arrive at the values described herein. The disease control rate was 1 of 9 patients who expressed low levels of CD73, and was 8 of 28 patients who expressed high levels of CD73. The objective response rate was 0 of 9 patients who expressed low levels of CD73, and was 1 of 28 patients who expressed high levels of CD73.
FIG. 5 is a graph showing tumor response to treatment with the compound of Formula (III) in patients expressing low levels of adenosine A2A receptors and/or CD73 and patients expressing high levels of both adenosine A2A receptors and CD73. RNA was extracted from pre-treatment tumor samples, and Nanostring was performed to arrive at the values described herein. The disease control rate was 8 of 21 patients who expressed low levels of adenosine A2A receptors and/or CD73, and was 1 of 16 patients who expressed high levels of both adenosine A2A receptors and CD73. The objective response rate was 1 of 21 patients who expressed low levels of adenosine A2A receptors and/or CD73, and was 0 of 16 patients who expressed high levels of both adenosine A2A receptors and CD73.
FIG. 6 is a graph showing tumor response to treatment with the compound of Formula (III) in patients expressing low levels of PD-L1 mRNA and patients expressing high levels of PD-L1 mRNA. RNA was extracted from pre-treatment tumor samples, and Nanostring was performed to arrive at the values described herein. The disease control rate was 3 of 17 patients who expressed low levels of PD-L1 mRNA, and was 6 of 20 patients who expressed high levels of PD-L1 mRNA. The objective response rate was 0 of 17 patients who expressed low levels of PD-L1 mRNA, and was 1 of 20 patients who expressed high levels of PD-L1 mRNA.
FIG. 7 is a graph showing tumor response to treatment with the compound of Formula (III) in patients having low levels of PD-L1 and patients having high levels of PD-L1. PD-L1 staining on immune cells was determined by immunohistochemistry using the SP142 antibody that detects PD-L1. The disease control rate was 7 of 24 patients who expressed low levels of PD-L1, and was 2 of 13 patients who expressed high levels of PD-L1. The objective response rate was 0 of 24 patients who expressed low levels of PD-L1, and was 1 of 13 patients who expressed high levels of PD-L1.
“Objective response rate” refers to the patients that had greater than 30% reduction in the sum of the longest dimensions of their assessed target tumor lesions.
The compound of Formula (III) is being investigated in an ongoing Phase 1/1b clinical trial in patients with advanced cancers (NCT02655822 at www.clinicaltrials.gov). Biomarker investigations were conducted to explore immune modulation in serial tumor biopsies and peripheral blood as well associations between adenosine pathway genes and clinical activity. […]

[2] = tested on: tumor biopsies; assay: On-treatment vs pre-treatment tumor biopsies, IHC and Nanostring gene expression; format: in vivo, human; conditions: on-treatment biopsies compared to pre-treatment biopsies
Description: FIGS. 8A-8H show log2-fold changes in immunohistochemistry and gene expression (i.e., mRNA) by Nanostring on on-treatment biopsies compared to pre-treatment biopsies and identifies pharmacodynamics changes that are observed in CD73-high tumors treated with a compound of Formula (III). FIG. 8A compares CD8 infiltration, measured by IHC, in patients expressing low levels and high levels of CD73 (where the p=0.005) after treatment with the compound of Formula (III). FIG. 8B compares PD-L1 inflammation infiltration, measured by IHC, in patients expressing low levels and high levels of CD73 (p=0.15) after treatment with the compound of Formula (III). FIG. 8C compares CXCL9 (chemokine C-X-C motif ligand 9) gene expression in patients expressing low levels and high levels of CD73 (p=0.02) after treatment with the compound of Formula (III). […]
The patients were orally administered the compound of Formula (III) at a dose of 100 mg, twice a day, for twenty-eight days. Tumor biopsies and blood samples were analyzed from patients with renal cell carcinoma, non-small cell lung cancer, triple negative breast cancer, microsatellite instable colorectal cancer treated with the compound of Formula (III). Paired tumor biopsies were analyzed: gene expression profiles (Nanostring), CD8, PD-L1 and CD73 (IHC). […]

[3] = tested on: T cell function; assay: Suppression of T cell function by adenosine; format: cell-based
[4] = Preclinical models
[5] = patients expressing high levels of both adenosine A2A receptors and CD73
[6] = patients expressing low levels of adenosine A2A receptors and/or CD73

Question: Which results are given for `Cc1ccc(-c2nc(N)nc3c2nnn3Cc2cccc(COC3CCOC3)n2)o1` (centres unmarked) [compound of Formula (III)]?
Answer: Objective response rate ([1]; patients expressing high levels of CD73): 1 of 28; Disease control rate ([1]; patients expressing high levels of CD73 (Nanostring)): 8 of 28; Objective response rate ([1]; patients expressing high levels of PD-L1 mRNA): 1 of 20; Disease control rate ([1]; patients expressing high levels of PD-L1 mRNA (Nanostring)): 6 of 20; Objective response rate ([1]; patients expressing high levels of adenosine A2A receptors): 1 of 26; Disease control rate ([1]; patients expressing high levels of adenosine A2A receptors (Nanostring, pre-treatment tumor)): 9 of 26; Disease control rate [1, 5]: 1 of 16; Objective response rate [1, 5]: 0 of 16; Objective response rate ([1]; patients expressing low levels of CD73): 0 of 9; Disease control rate ([1]; patients expressing low levels of CD73 (Nanostring)): 1 of 9; Objective response rate ([1]; patients expressing low levels of PD-L1 mRNA): 0 of 17; Disease control rate ([1]; patients expressing low levels of PD-L1 mRNA (Nanostring)): 3 of 17; Disease control rate ([1]; patients expressing low levels of adenosine A2A receptors (Nanostring, pre-treatment tumor)): 0 of 11; Disease control rate [1, 6]: 8 of 21; Objective response rate [1, 6]: 1 of 21; Disease control rate ([1]; patients with high levels of PD-L1 (IHC on immune cells, SP142 antibody, ≥1%)): 2 of 13; Objective response rate ([1]; patients with high levels of PD-L1 (IHC, SP142)): 1 of 13; Disease control rate ([1]; patients with low levels of PD-L1 (IHC on immune cells, SP142 antibody, <1%)): 7 of 24; Objective response rate ([1]; patients with low levels of PD-L1 (IHC, SP142)): 0 of 24; Tumor regression ([1]; patients with elevated expression of adenosine A2A receptor genes, CD73 and PD-L1 in baseline tumor samples compared to patients having low expression): significant tumor regression; Pharmacodynamics changes in IHC and gene expression [2]: observed only in CD73-high tumors; Effect on suppression of T cell function by adenosine [3]: inhibits suppression of T cell function by adenosine; Activity in preclinical models [4]: active in multiple preclinical models
